Source: the SangsterLogP compilation

`CCOCCOCCO` showed a logP of -0.54.
`CCOCCOCC` gave a logP of 0.66.
With `COC(=O)CCC(=O)OC` the logP was 0.19.
With `CCCCCCOCCOCCO` the logP was 1.7.
Compound `CCCCOCCCC` has a logP of 3.21.
Work on `CCOC(=O)CCC(=O)OCC` yielded a logP of 1.19.
In the case of `CCCCCCOCCO`, the logP was 1.86.
In the case of `CCCCOCCOCCO`, the logP was 0.56.
`CCOCCOCCOCC` gave a logP of 0.39.
Work on `CCCOC(=O)CCC(=O)OCCC` yielded a logP of 2.16.
For `CCCCOCCOCCOCCCC`, the logP was 1.92.
For `CCCCOCCOCCCC`, the logP was 2.48.
`COCCOCCOC` showed a logP of -0.36.
Compound `COCCOC` has a logP of -0.21.
Compound `CCCCOCCO` has a logP of 0.76.
